The results in this text go back to patent US20220016023A1, “METHOD FOR TREATING MYOPIA AND APPLICATION IN PREPARATION OF MEDICAMENT” (WENZHOU MEDICAL UNIVERSITY, priority 2018, published 2022).

For this test, the system named is form deprivation myopia. The conditions noted are these: for difference of binocular refractions / difference of binocular axial lengths: 2 weeks after form deprivation, p<0.01; for difference of binocular axial lengths: vehicle 0.17±0.05.

Each structure is given as a SMILES string. Where two headings read alike, the source gives them in different places.

For `O=C(O)c1cccnc1` [nicotinic acid], where the note is “FDM+NA (0.1 mg), FDM+Vehicle −5.43±1.69, FIG. 5A”, the “difference of binocular refractions” value was −3.43±1.80 D. Further, for the setting “FDM+NA (0.1 mg), FIG. 5B”, the “difference of binocular axial lengths” value was determined as 0.10±0.06 mm. For the same molecule, the “choroidal blood flow, fellow eye vs. test eye” value (after periocular injection of 0.1 mg nicotinic acid, 2 weeks form deprivation, FIG. 5C) was “no statistical difference between two eyes”.

Turning to `COc1cc2nc(N3CCN(C(=O)c4ccco4)CC3)nc(N)c2cc1OC` [prazosin], the “difference of binocular refractions” value (FDM+Pr (10 μM), FDM+Vehicle −5.98±2.22, FIG. 6A) was −3.26±2.22 D. Further, the “difference of binocular axial lengths” value (FDM+Pr (10 μM), FIG. 6B) is recorded as 0.10±0.06 mm.
